Molecules are shown by their SMILES.

The test system of experiment [1] is HEK293sieSTAT3(wt). Description: drug sensitivity score (DSS), cytotoxicity CellTox Green (DSS (dimensionless)); higher = more cytotoxic; extreme values may be limits of the assay. Conditions: 72 h; STAT3 variant: wild type. In a few lines:
(§1)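 HEK293 cells bearing a STAT3-dependent luciferase reporter and overexpressing wild-type or mutant STAT3 were incubated with compounds at 5 concentrations in 10-fold steps for 72 hours at 37°C and 5% CO2. CellTox Green fluorescence and then CellTiter-Glo luminescence were measured, and values were normalised to negative and positive control wells. In Breeze, a drug sensitivity score was computed from the dose-response curve area.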

Experiment [2] has as its system HEK293sieSTAT3(Y640F). Described as above. Conditions: 72 h; STAT3 variant: Y640F (constitutively active). In a few lines:
as §1

Experiment [3] concerns HEK293sieSTAT3(wt). The experiment is described as follows: drug sensitivity score (DSS), viability CellTiter-Glo (DSS (dimensionless)); higher = more growth inhibition; extreme values may be limits of the assay. The note with it: 72 h; STAT3 variant: wild type. Summed up:
as §1
On the technique in general: Cellular ATP, detected with luciferase, serves as a proxy for viable cell number.

Experiment [4] concerns HEK293sieSTAT3(Y640F). The description is as above. Conditions: 72 h; STAT3 variant: Y640F (constitutively active). Summed up: as §1

For the compound `CN(C)C[C@@H]1CCn2cc(c3ccccc32)C2=C(C(=O)NC2=O)c2cn(c3ccccc23)CCO1` [Ruboxistaurin] (top concentration tested 10000 nM), the drug sensitivity score was 6.85 in the experiment with HEK293sieSTAT3(wt) [1], 6.6 in the experiment with HEK293sieSTAT3(Y640F) [2], 8.97 in the experiment on HEK293sieSTAT3(wt) [3] and 9 in the experiment on HEK293sieSTAT3(Y640F) [4].
In the same order, the values of `CNCc1ccc(-c2[nH]c3cc(F)cc4c3c2CCNC4=O)cc1` [Rucaparib] (top concentration tested 10000 nM) are 0.89, 0, 4.23 and 4.37.
Taken in the same sequence, the figures for `N#CC[C@H](C1CCCC1)n1cc(-c2ncnc3[nH]ccc23)cn1` [Ruxolitinib] (top concentration tested 10000 nM) were 0.1, 0.39, 3.2 and 2.89.
Turning to `CC(C)N(CCCNC(=O)Nc1ccc(C(C)(C)C)cc1)C[C@H]1O[C@@H](n2cc(Br)c3c(N)ncnc32)[C@H](O)[C@@H]1O` [SGC0946] (top concentration tested 10000 nM), the drug sensitivity score in the experiment with HEK293sieSTAT3(wt) [1] turned out to be 6.85; with HEK293sieSTAT3(Y640F) [2], 0.07; in the experiment on HEK293sieSTAT3(wt) [3], 7.15; in the experiment with HEK293sieSTAT3(Y640F) [4] it was 3.05.
Taken in the same sequence, the figures for `COc1ccc(CCc2nc3cc(-c4c(C)noc4C)ccc3n2C[C@H](C)N2CCOCC2)cc1Cl` [SGC-CBP30] (top concentration tested 25000 nM) were 4.24, 0.32, 4.3 and 3.16.
Turning to `CN1CCC(CNc2ccc3ncc(-c4cccc(OC(F)(F)F)c4)n3n2)CC1` [SGI-1776] (top concentration tested 10000 nM), the drug sensitivity score in the experiment on HEK293sieSTAT3(wt) [1] stood at 7.56; with HEK293sieSTAT3(Y640F) [2], 4.99; in the experiment with HEK293sieSTAT3(wt) [3] it was 9.07; with HEK293sieSTAT3(Y640F) [4], 6.8.
Taken in the same sequence, the figures for `Cn1cc(-c2ccc3nnc(Sc4ccc5ncccc5c4)n3n2)cn1` [SGX-523] (top concentration tested 5000 nM) were 0, 0.89, 0.49 and 0.
Turning to `CN(CC(=O)N(Cc1ccc(C2CCCCC2)cc1)c1ccc(C(=O)O)cc1)S(=O)(=O)c1c(F)c(F)c(F)c(F)c1F` [SH-4-54] (top concentration tested 25000 nM), the drug sensitivity score was found to be 9.04 in the experiment with HEK293sieSTAT3(wt) [1], 5.59 with HEK293sieSTAT3(Y640F) [2], 10.8 in the experiment on HEK293sieSTAT3(wt) [3] and 10.1 with HEK293sieSTAT3(Y640F) [4].
Regarding `CC(C)NC(=O)COc1cccc(-c2nc(Nc3ccc4[nH]ncc4c3)c3ccccc3n2)c1` [SLx-2119] (top concentration tested 5000 nM), the drug sensitivity score in the experiment on HEK293sieSTAT3(wt) [1] stood at 0.57; in the experiment on HEK293sieSTAT3(Y640F) [2], 0; in the experiment on HEK293sieSTAT3(wt) [3], 5.8; in the experiment on HEK293sieSTAT3(Y640F) [4] it was 10.7.
In the same order, the values of `CCc1c2c(nc3ccc(O)cc13)-c1cc3c(c(=O)n1C2)COC(=O)[C@]3(O)CC` [SN-38] (top concentration tested 10000 nM) are 22.4, 14.3, 40.7 and 42.
In the same order, the values of `CC(C)(C)c1cnc(CSc2cnc(NC(=O)C3CCNCC3)s2)o1` [SNS-032] (top concentration tested 10000 nM) are 22.6, 10.3, 26.7 and 25.3.
`O=C(Nc1cccc(Cl)c1)Nc1ncc(CCNc2ncnc3ccsc23)s1` [SNS-314] (top concentration tested 1000 nM): the drug sensitivity score amounted to 2.17 in the experiment on HEK293sieSTAT3(wt) [1], 0 with HEK293sieSTAT3(Y640F) [2], 5 in the experiment with HEK293sieSTAT3(wt) [3] and 5.69 in the experiment with HEK293sieSTAT3(Y640F) [4].
For `Cc1cc2c(C(=O)NC[C@H](C)c3ccccc3)c(O)c(O)cc2c(O)c1-c1c(C)cc2c(C(=O)NC[C@H](C)c3ccccc3)c(O)c(O)cc2c1O` [Sabutoclax] (top concentration tested 25000 nM), the drug sensitivity score in the experiment on HEK293sieSTAT3(wt) [1] was 9.82; in the experiment with HEK293sieSTAT3(Y640F) [2] it was 12.2; with HEK293sieSTAT3(wt) [3], 27.8; with HEK293sieSTAT3(Y640F) [4] it was 26.4.
Taken in the same sequence, the figures for `CNC(=O)CN1CCC(Oc2cc3c(Nc4cccc(Cl)c4F)ncnc3cc2OC)CC1` [Sapitinib] (top concentration tested 1000 nM) were 0, 0, 0 and 1.89.
Take `CN1CCN(CCOc2cc(OC3CCOCC3)c3c(Nc4c(Cl)ccc5c4OCO5)ncnc3c2)CC1` [Saracatinib] (top concentration tested 10000 nM): the drug sensitivity score with HEK293sieSTAT3(wt) [1] turned out to be 9.4; in the experiment on HEK293sieSTAT3(Y640F) [2] it was 1.77; in the experiment with HEK293sieSTAT3(wt) [3], 6.87; in the experiment with HEK293sieSTAT3(Y640F) [4], 7.28.
In the same order, the values of `CC[C@H](CO)Nc1nc(NCc2ccccc2)c2ncn(C(C)C)c2n1` [Seliciclib] (top concentration tested 10000 nM) are 6.62, 2.48, 6.69 and 6.02.
As to `O=C(/C=C\n1cnc(-c2cc(C(F)(F)F)cc(C(F)(F)F)c2)n1)NNc1cnccn1` [Selinexor] (top concentration tested 10000 nM), the drug sensitivity score in the experiment with HEK293sieSTAT3(wt) [1] came out at 26.4; in the experiment on HEK293sieSTAT3(Y640F) [2], 14.5; in the experiment with HEK293sieSTAT3(wt) [3] it was 30.8; in the experiment on HEK293sieSTAT3(Y640F) [4] it was 26.9.
Taken in the same sequence, the figures for `Cn1cnc2c(F)c(Nc3ccc(Br)cc3Cl)c(C(=O)NOCCO)cc21` [Selumetinib] (top concentration tested 10000 nM) were 0, 0.68, 0.99 and 1.4.
Turning to `Cc1cc(C)c(/C=C2\C(=O)Nc3ccccc32)[nH]1` [Semaxanib] (top concentration tested 10000 nM), the drug sensitivity score was 8.57 in the experiment on HEK293sieSTAT3(wt) [1], 3.22 in the experiment with HEK293sieSTAT3(Y640F) [2], 2.08 in the experiment with HEK293sieSTAT3(wt) [3] and 0 with HEK293sieSTAT3(Y640F) [4].
Taken in the same sequence, the figures for `c1ccc2c(CCNc3ccc(Nc4ccncc4)cc3)c[nH]c2c1` [Serdemetan] (top concentration tested 10000 nM) were 1.74, 0, 7.89 and 5.06.
As to `O=C(O)c1ccc2c(c1)nc(Nc1cccc(Cl)c1)c1ccncc12` [Silmitasertib] (top concentration tested 10000 nM), the drug sensitivity score with HEK293sieSTAT3(wt) [1] came to 1.84; in the experiment with HEK293sieSTAT3(Y640F) [2], 0; with HEK293sieSTAT3(wt) [3], 7.79; in the experiment on HEK293sieSTAT3(Y640F) [4], 6.52.
`CO[C@H]1C[C@@H]2CC[C@@H](C)[C@@](O)(O2)C(=O)C(=O)N2CCCC[C@H]2C(=O)O[C@H]([C@H](C)C[C@@H]2CC[C@@H](O)[C@H](OC)C2)CC(=O)[C@H](C)/C=C(\C)[C@@H](O)[C@@H](OC)C(=O)[C@H](C)C[C@H](C)/C=C/C=C/C=C/1C` [Sirolimus] (top concentration tested 100 nM): the drug sensitivity score in the experiment on HEK293sieSTAT3(wt) [1] was found to be 0; with HEK293sieSTAT3(Y640F) [2], 0; with HEK293sieSTAT3(wt) [3], 9.09; in the experiment with HEK293sieSTAT3(Y640F) [4], 7.

The values above are taken from the supplement of paper PMC7108870.
